{"source": "ChEMBL document CHEMBL4673209", "about": "“Discovery of a novel potent GPR40 full agonist” (Bioorg Med Chem Lett, 2018)", "key": {"[1]": {"test": "Drug metabolism in rat assessed as (3S)-3-cyclopropyl-3-(3-((5-(5-fluoro-2-hydroxypyridin-4-yl)-6-isobutylpyrazin-2-yl)methoxy)phenyl)propanoic acid metabolite formation by MetID studies", "format": "ADME"}, "Mus musculus [2]": {"test_system": "Mus musculus", "test": "Induction of GLP-1 secretion in GPR40 knock-out mouse at 100 mg/kg", "format": "functional, organism-based"}, "[3]": {"test": "Half life in iv dosed dog", "format": "ADME, organism-based, Canis lupus familiaris", "settings": "in vivo"}, "[4]": {"test": "Drug metabolism in human assessed as (3S)-3-cyclopropyl-3-(3-((5-(5-fluoro-2-hydroxypyridin-4-yl)-6-isobutylpyrazin-2-yl)methoxy)phenyl)propanoic acid metabolite formation by MetID studies", "format": "ADME"}, "Rattus norvegicus [5]": {"test_system": "Rattus norvegicus", "test": "Anti-glycemic activity in fasted Sprague-Dawley ZDF rat assessed as reduction in post-prandial hyperglycemia by measuring AUC(0 to 2 hrs) for blood glucose at 10 mg/kg administered daily for 8 days and measured on day 8 by OGTT", "format": "functional", "settings": "time 8 day"}, "Mus musculus [6]": {"species": "Mus musculus", "test": "Anti-glycemic activity in GPR40 knockout mouse assessed as reduction in blood glucose excursion measured for 120 mins by IPGTT", "format": "functional, organism-based"}, "[7]": {"test": "Protein binding in cynomolgus monkey plasma", "format": "ADME, cell-free, Macaca fascicularis", "settings": "read-out: PPB (converted)"}, "[8]": {"molecular_target": "Free fatty acid receptor 1 (Rattus norvegicus) (UniProt Q8K3T4)", "sequence (Q8K3T4 whole entry)": "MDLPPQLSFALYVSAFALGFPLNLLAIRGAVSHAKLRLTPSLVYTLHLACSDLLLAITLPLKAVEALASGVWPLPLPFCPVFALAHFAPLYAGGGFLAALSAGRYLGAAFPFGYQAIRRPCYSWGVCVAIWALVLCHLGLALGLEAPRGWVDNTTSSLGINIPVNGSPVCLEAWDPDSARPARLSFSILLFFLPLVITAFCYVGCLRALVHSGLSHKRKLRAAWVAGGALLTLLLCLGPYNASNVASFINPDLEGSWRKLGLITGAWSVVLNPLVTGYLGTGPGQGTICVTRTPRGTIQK", "test": "Agonist activity at GPR40 receptor in rat INS1(832/13) cells assessed as induction of IP1 accumulation at 10 uM", "format": "functional, cell-based", "settings": "INS-1 832/13, filed as agonist"}, "[9]": {"test": "Volume of distribution at steady state in cynomolgus monkey", "format": "ADME, Macaca fascicularis", "settings": "in vivo, read-out: Vdss"}, "[10]": {"molecular_target": "Free fatty acid receptor 1 (Rattus norvegicus) (UniProt Q8K3T4)", "test": "Agonist activity at GPR40 receptor in rat INS1(832/13) cells assessed as induction of IP1 accumulation at 10 uM relative to AM1638", "format": "functional, cell-based", "settings": "INS-1 832/13, filed as agonist"}, "[11]": {"molecular_target": "Free fatty acid receptor 1 (Rattus norvegicus) (UniProt Q8K3T4)", "test": "Agonist activity at GPR40 receptor in rat INS1(832/13) cells assessed as induction of IP1 accumulation at 10 uM relative to TAK875", "format": "functional, cell-based", "settings": "INS-1 832/13, filed as agonist"}, "[12]": {"molecular_target": "T1, Peroxisome proliferator-activated receptor delta (Homo sapiens) (UniProt Q03181)", "T1 sequence (whole entry)": "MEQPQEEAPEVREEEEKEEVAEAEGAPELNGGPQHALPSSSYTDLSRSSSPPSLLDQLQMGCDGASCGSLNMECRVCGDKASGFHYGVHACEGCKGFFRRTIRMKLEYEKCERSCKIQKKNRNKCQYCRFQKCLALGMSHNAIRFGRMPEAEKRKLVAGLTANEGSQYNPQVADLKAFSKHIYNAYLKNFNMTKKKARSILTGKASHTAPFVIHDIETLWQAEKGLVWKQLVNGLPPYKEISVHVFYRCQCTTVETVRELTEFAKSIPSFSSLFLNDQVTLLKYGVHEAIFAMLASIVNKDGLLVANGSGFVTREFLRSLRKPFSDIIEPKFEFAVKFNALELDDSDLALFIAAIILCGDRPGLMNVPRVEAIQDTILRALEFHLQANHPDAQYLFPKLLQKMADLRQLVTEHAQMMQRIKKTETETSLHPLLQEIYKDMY", "test": "Agonist activity at PPARbeta (unknown origin)"}, "[13]": {"molecular_target": "Free fatty acid receptor 1 (Homo sapiens, UniProt O14842)", "sequence (O14842 whole entry)": "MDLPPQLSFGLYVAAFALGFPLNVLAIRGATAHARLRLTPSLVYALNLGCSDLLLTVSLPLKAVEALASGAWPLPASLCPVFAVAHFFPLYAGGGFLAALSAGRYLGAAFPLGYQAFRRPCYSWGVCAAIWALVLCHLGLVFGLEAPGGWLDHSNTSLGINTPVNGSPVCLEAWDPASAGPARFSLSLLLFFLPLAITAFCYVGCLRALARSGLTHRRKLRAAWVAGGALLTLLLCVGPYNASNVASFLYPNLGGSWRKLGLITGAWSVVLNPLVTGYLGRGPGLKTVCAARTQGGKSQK", "test": "Agonist activity at human GPR40 receptor expressed in CHOK1 cells assessed as induction of IP1 accumulation at 10 uM relative to AM1638", "format": "functional, cell-based", "settings": "CHO-K1, filed as agonist"}, "[14]": {"test": "Hepatic clearance in human", "format": "ADME"}, "[15]": {"molecular_target": "T2, Free fatty acid receptor 3 (Homo sapiens) (UniProt O14843)", "T2 sequence (whole entry)": "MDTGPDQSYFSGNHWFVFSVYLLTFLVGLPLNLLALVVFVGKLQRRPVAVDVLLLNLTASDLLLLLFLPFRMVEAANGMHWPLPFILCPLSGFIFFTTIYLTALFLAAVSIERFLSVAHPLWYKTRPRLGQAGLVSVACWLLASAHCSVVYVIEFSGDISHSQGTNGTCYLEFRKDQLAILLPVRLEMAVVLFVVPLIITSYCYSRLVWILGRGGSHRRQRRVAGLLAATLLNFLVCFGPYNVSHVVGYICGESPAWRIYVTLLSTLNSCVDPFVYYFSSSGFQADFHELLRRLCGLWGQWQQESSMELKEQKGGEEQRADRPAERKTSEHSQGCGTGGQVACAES", "test": "Agonist activity at GPR41 (unknown origin)"}, "[16]": {"test": "Apparent permeability across basolateral to apical side in human Caco2 cells", "format": "ADME, cell-based", "settings": "Caco-2"}, "Rattus norvegicus [17]": {"test_system": "Rattus norvegicus", "test": "Anti-glycemic activity in fasted Sprague-Dawley ZDF rat assessed as reduction in post-prandial hyperglycemia administered 30 mins prior to glucose challenge and measured for 120 mins by OGTT", "format": "functional", "settings": "2.5 h, time 150 min, read-out: MED"}, "Rattus norvegicus [18]": {"test_system": "Rattus norvegicus", "test": "Anti-glycemic activity in fasted Sprague-Dawley ZDF rat assessed as increase in insulin secretion by measuring insulin level in plasma at 3 mg/kg administered 30 mins prior to glucose challenge measured after 140 mins by OGTT", "format": "functional", "settings": "time 170 min, 2.833 h"}, "[19]": {"molecular_target": "T3, Free fatty acid receptor 4 (Homo sapiens) (UniProt Q5NUL3)", "T3 sequence (whole entry)": "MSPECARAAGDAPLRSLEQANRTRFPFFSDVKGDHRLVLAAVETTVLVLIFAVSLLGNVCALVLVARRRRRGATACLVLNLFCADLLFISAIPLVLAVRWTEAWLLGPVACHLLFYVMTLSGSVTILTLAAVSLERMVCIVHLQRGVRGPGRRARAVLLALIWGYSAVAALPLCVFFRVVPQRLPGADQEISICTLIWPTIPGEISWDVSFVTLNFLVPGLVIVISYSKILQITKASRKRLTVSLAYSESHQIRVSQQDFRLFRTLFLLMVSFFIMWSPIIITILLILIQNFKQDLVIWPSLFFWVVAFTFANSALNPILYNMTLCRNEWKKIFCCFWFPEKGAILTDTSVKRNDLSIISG", "test": "Agonist activity at GPR120 (unknown origin)"}, "Cytochrome P450 3A4": {"molecular_target": "Cytochrome P450 3A4 (Homo sapiens, UniProt P08684)", "sequence (P08684 whole entry)": "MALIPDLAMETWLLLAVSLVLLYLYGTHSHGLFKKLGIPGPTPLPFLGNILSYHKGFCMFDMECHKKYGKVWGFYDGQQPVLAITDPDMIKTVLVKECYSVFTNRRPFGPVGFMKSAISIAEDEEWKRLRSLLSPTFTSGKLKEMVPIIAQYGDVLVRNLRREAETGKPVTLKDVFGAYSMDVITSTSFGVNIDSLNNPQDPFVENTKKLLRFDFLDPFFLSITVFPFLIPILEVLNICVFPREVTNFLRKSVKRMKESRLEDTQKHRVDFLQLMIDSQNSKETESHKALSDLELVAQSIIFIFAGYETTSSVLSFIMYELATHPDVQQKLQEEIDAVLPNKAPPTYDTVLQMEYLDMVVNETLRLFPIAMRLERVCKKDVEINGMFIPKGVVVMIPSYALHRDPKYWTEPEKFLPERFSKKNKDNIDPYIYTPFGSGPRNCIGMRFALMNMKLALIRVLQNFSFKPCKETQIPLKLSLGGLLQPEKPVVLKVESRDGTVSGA", "test": "Inhibition of CYP3A4 (unknown origin) using midazolam as substrate", "format": "ADME"}, "[20]": {"molecular_target": "Free fatty acid receptor 1 (Rattus norvegicus) (UniProt Q8K3T4)", "test": "Agonist activity at GPR40 in rat INS1 (832/13) cells assessed as induction of glucose-stimulated insulin secretion in presence of 10 mM glucose", "format": "cell-based", "settings": "INS-1 832/13, filed as agonist"}, "[21]": {"molecular_target": "Free fatty acid receptor 1 (Rattus norvegicus) (UniProt Q8K3T4)", "test": "Agonist activity at rat GPR40 receptor expressed in CHOK1 cells assessed as induction of IP1 accumulation at 10 uM relative to TAK875", "format": "functional, cell-based", "settings": "CHO-K1, filed as agonist"}, "[22]": {"test": "Hepatic clearance in dog", "format": "ADME, Canis lupus familiaris", "settings": "in vivo"}, "Cytochrome P450 2D6": {"molecular_target": "Cytochrome P450 2D6 (Homo sapiens, UniProt P10635)", "sequence (P10635 whole entry)": "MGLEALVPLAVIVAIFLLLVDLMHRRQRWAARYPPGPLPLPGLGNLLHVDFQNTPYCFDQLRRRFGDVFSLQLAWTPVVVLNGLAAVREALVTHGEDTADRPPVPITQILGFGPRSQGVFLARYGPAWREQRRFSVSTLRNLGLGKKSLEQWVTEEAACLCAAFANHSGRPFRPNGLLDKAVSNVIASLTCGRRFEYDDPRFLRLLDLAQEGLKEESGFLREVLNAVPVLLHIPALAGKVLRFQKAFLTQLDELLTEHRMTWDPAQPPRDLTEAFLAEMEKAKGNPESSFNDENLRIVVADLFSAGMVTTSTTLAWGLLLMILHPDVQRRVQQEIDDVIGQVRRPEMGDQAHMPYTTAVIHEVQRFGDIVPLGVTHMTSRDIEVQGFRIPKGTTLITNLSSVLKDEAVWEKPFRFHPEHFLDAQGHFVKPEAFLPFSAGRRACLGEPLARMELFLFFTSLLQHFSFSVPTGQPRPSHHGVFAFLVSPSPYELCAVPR", "test": "Inhibition of CYP2D6 (unknown origin)", "format": "ADME"}, "Rattus norvegicus [23]": {"test_system": "Rattus norvegicus", "test": "Anti-glycemic activity in fasted Sprague-Dawley ZDF rat assessed as increase in insulin secretion by measuring insulin level in plasma at 1 mg/kg administered 30 mins prior to glucose challenge measured after 140 mins by OGTT", "format": "functional", "settings": "time 170 min, 2.833 h"}, "[24]": {"test": "Cmax in rat", "format": "ADME", "settings": "in vivo"}, "[25]": {"test": "Volume of distribution at steady state in dog", "format": "ADME, Canis lupus familiaris", "settings": "in vivo, read-out: Vdss"}, "[26]": {"test": "Intrinsic clearance in dog assessed as half-life at 1 uM", "format": "ADME, Canis lupus familiaris"}, "[27]": {"test": "Protein binding in dog plasma", "format": "ADME, cell-free, Canis lupus familiaris", "settings": "read-out: PPB (converted)"}, "[28]": {"test": "Oral bioavailability in cynomolgus monkey", "format": "ADME, organism-based, Macaca fascicularis", "settings": "in vivo"}, "Mus musculus [29]": {"test_system": "Mus musculus", "test": "In vivo agonist activity at GPR40 in C57 mouse assessed as induction of GLP1 secretion at 100 mg/kg", "format": "functional, organism-based"}}, "note": "Active and inactive are the calls of the source. The rule behind the calls is not given here."}
{"compound": "COc1cc(-c2ncc(COc3cccc([C@@H](CC(=O)O)C4CC4)c3)nc2CC(C)C)c(F)cn1", "values": [{"measurement": "Drug metabolism", "setting": "[1]", "result": "Metabolite_Detected"}, {"measurement": "Activity", "setting": "Mus musculus [2]", "result": "inactive"}, {"measurement": "half-life", "setting": "[3]", "result": 4.82, "unit": "h"}, {"measurement": "Drug metabolism", "setting": "[4]", "result": "Metabolite_Detected"}, {"measurement": "Activity", "setting": "Rattus norvegicus [5]", "result": 51024, "unit": "ng/mL.hr"}, {"measurement": "Activity", "setting": "Mus musculus [6]", "result": "inactive"}, {"measurement": "fraction unbound", "setting": "[7]", "result": 0.0009}, {"measurement": "Activity", "setting": "[8]", "result": 1170, "unit": "nM"}, {"measurement": "Vd", "setting": "[9]", "result": 1.06, "unit": "L/kg"}, {"measurement": "Activity", "setting": "[10]", "result": 104, "unit": "%"}, {"measurement": "Activity", "setting": "[11]", "result": 208, "unit": "%"}, {"measurement": "Activity", "setting": "[12]", "result": "inactive"}, {"measurement": "Activity", "setting": "[13]", "result": 121, "unit": "%"}, {"measurement": "CLH", "setting": "[14]", "result": 0.534, "unit": "L/h/kg"}, {"measurement": "Activity", "setting": "[15]", "result": "inactive"}, {"measurement": "Papp B→A", "setting": "[16]", "result": 400, "unit": "nm/s"}, {"measurement": "minimal effective dose", "setting": "Rattus norvegicus [17]", "result": 3, "unit": "mg/kg"}, {"measurement": "Activity", "setting": "Rattus norvegicus [18]", "result": 5275, "unit": "ng/mL"}, {"measurement": "Activity", "setting": "[19]", "result": "inactive"}, {"measurement": "IC50", "setting": "Cytochrome P450 3A4", "result": 8, "unit": "µM"}, {"measurement": "Activity", "setting": "[20]", "result": "Active"}, {"measurement": "Activity", "setting": "[21]", "result": 167, "unit": "%"}, {"measurement": "CLH", "setting": "[22]", "result": 0.81, "unit": "L/h/kg"}, {"measurement": "IC50", "setting": "Cytochrome P450 2D6", "result": "> 10", "unit": "µM"}, {"measurement": "Activity", "setting": "Rattus norvegicus [23]", "result": 1405, "unit": "ng/mL"}, {"measurement": "Cmax", "setting": "[24]", "result": 9.72, "unit": "µg/mL"}, {"measurement": "Vd", "setting": "[25]", "result": 1.62, "unit": "L/kg"}, {"measurement": "half-life at 1 µM", "setting": "[26]", "result": 1.38, "unit": "h"}, {"measurement": "fraction unbound", "setting": "[27]", "result": 0.0045}, {"measurement": "bioavailability", "setting": "[28]", "result": 99.4, "unit": "%"}, {"measurement": "Activity", "setting": "Mus musculus [29]", "result": "Active"}]}
